Experimental data published in PubChem BioAssay AID2060485 (Molecular Pharmacology Branch, DTP, NCI, 2025).
Values joined by “and” are separate entries in the source; they are usually repeats but may differ in a detail not shown here. Equal values may be shown once.

Test system: A375 multi-cell spheroids with HUVEC/MSC, viability
Assay: Anticancer human tumor A375 cell line growth inhibition [GQUAD];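 note: spheroids exposed to compounds for seven days before readout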
Conditions: for viability, T/C: stronger effect = lower value
In short: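 Tumor cells were grown as complex spheroids with HUVEC endothelial cells and mesenchymal stem cells as stroma. G-quadruplex stabilizers were combined with targeted agents over half-log dilutions from near the clinical Cmax, or from 10 microM.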

[1] = curve of first compound, second compound 0.0316 µM
[2] = curve of first compound, second compound 0.1 µM
[3] = curve of first compound, second compound 0.316 µM
[4] = curve of first compound, second compound 1 µM
[5] = curve of first compound, second compound 3.16 µM
[6] = curve of first compound, second compound 10 µM
[7] = second compound 0.0316 µM, first compound 0.0316 µM
[8] = second compound 0.0316 µM, first compound 0.316 µM
[9] = second compound 0.1 µM, first compound 0.0316 µM
[10] = second compound 0.1 µM, first compound 0.316 µM
[11] = second compound 0.316 µM, first compound 0.0316 µM
[12] = second compound 0.316 µM, first compound 0.316 µM
[13] = second compound 1 µM, first compound 0.0316 µM
[14] = second compound 1 µM, first compound 0.316 µM
[15] = second compound 3.16 µM, first compound 0.0316 µM
[16] = second compound 3.16 µM, first compound 0.316 µM
[17] = second compound 10 µM, first compound 0.0316 µM
[18] = second compound 10 µM, first compound 0.316 µM
[19] = second compound 0.0316 µM, first compound 0.1 µM
[20] = second compound 0.0316 µM, first compound 1 µM
[21] = second compound 0.0316 µM, first compound 3.16 µM
[22] = second compound 0.0316 µM, first compound 10 µM
[23] = second compound 0.1 µM, first compound 0.1 µM
[24] = second compound 0.1 µM, first compound 1 µM
[25] = second compound 0.1 µM, first compound 3.16 µM
[26] = second compound 0.1 µM, first compound 10 µM
[27] = second compound 0.316 µM, first compound 0.1 µM
[28] = second compound 0.316 µM, first compound 1 µM
[29] = second compound 0.316 µM, first compound 3.16 µM
[30] = second compound 0.316 µM, first compound 10 µM
[31] = second compound 1 µM, first compound 0.1 µM
[32] = second compound 1 µM, first compound 1 µM
[33] = second compound 1 µM, first compound 3.16 µM
[34] = second compound 1 µM, first compound 10 µM
[35] = second compound 3.16 µM, first compound 0.1 µM
[36] = second compound 3.16 µM, first compound 1 µM
[37] = second compound 3.16 µM, first compound 3.16 µM
[38] = second compound 3.16 µM, first compound 10 µM
[39] = second compound 10 µM, first compound 0.1 µM
[40] = second compound 10 µM, first compound 1 µM
[41] = second compound 10 µM, first compound 3.16 µM
[42] = second compound 10 µM, first compound 10 µM

Q: Which IC50 [1] does the source give for `Cc1[nH]c2ccccc2c1CCNCc1ccc(/C=C/C(=O)NO)cc1` + Cc1[nH]c2ccc(F)cc2c1-c1nc2c3cccnc3c3ncccc3c2[nH]1 here?
A: 153 nM

Q: What about the IC50 [2] of the same compound?
A: 150 nM

Q: What about the IC50 [3] of the same compound?
A: 152 nM

Q: And the IC50 [4]?
A: 138 nM

Q: And the IC50 [5]?
A: 60.6 nM

Q: And the IC50 [6]?
A: 95.8 nM

Q: What about the viability, T/C (second compound 0.0316 µM, first compound 0.000999 µM) of the same compound?
A: 102%

Q: And the viability, T/C (second compound 0.0316 µM, first compound 0.00316 µM)?
A: 108%

Q: What about the viability, T/C (second compound 0.0316 µM, first compound 0.00999 µM) of the same compound?
A: 115%

Q: And the viability, T/C [7]?
A: 112%

Q: What about the viability, T/C (second compound 0.0316 µM, first compound 0.0999 µM) of the same compound?
A: 73.4%

Q: What about the viability, T/C [8] of the same compound?
A: 10.5%

Q: What about the viability, T/C (second compound 0.1 µM, first compound 0.000999 µM) of the same compound?
A: 105%

Q: What about the viability, T/C (second compound 0.1 µM, first compound 0.00316 µM) of the same compound?
A: 109%

Q: What about the viability, T/C (second compound 0.1 µM, first compound 0.00999 µM) of the same compound?
A: 110%

Q: What about the viability, T/C [9] of the same compound?
A: 124%

Q: What about the viability, T/C (second compound 0.1 µM, first compound 0.0999 µM) of the same compound?
A: 72%

Q: And the viability, T/C [10]?
A: 9.67%

Q: What about the viability, T/C (second compound 0.316 µM, first compound 0.000999 µM) of the same compound?
A: 110%

Q: And the viability, T/C (second compound 0.316 µM, first compound 0.00316 µM)?
A: 98.1%

Q: And the viability, T/C (second compound 0.316 µM, first compound 0.00999 µM)?
A: 118%

Q: And the viability, T/C [11]?
A: 116%

Q: What about the viability, T/C (second compound 0.316 µM, first compound 0.0999 µM) of the same compound?
A: 72.4%

Q: And the viability, T/C [12]?
A: 10.8%

Q: What about the viability, T/C (second compound 1 µM, first compound 0.000999 µM) of the same compound?
A: 98%

Q: What about the viability, T/C (second compound 1 µM, first compound 0.00316 µM) of the same compound?
A: 103%

Q: And the viability, T/C (second compound 1 µM, first compound 0.00999 µM)?
A: 113%

Q: What about the viability, T/C [13] of the same compound?
A: 106%

Q: What about the viability, T/C (second compound 1 µM, first compound 0.0999 µM) of the same compound?
A: 65.9%

Q: What about the viability, T/C [14] of the same compound?
A: 8.42%

Q: What about the viability, T/C (second compound 3.16 µM, first compound 0.000999 µM) of the same compound?
A: 76.4%

Q: What about the viability, T/C (second compound 3.16 µM, first compound 0.00316 µM) of the same compound?
A: 78.5%

Q: And the viability, T/C (second compound 3.16 µM, first compound 0.00999 µM)?
A: 81.9%

Q: What about the viability, T/C [15] of the same compound?
A: 86%

Q: What about the viability, T/C (second compound 3.16 µM, first compound 0.0999 µM) of the same compound?
A: 26.4%

Q: What about the viability, T/C [16] of the same compound?
A: 5.39%

Q: And the viability, T/C (second compound 10 µM, first compound 0.000999 µM)?
A: 86%

Q: And the viability, T/C (second compound 10 µM, first compound 0.00316 µM)?
A: 93%

Q: What about the viability, T/C (second compound 10 µM, first compound 0.00999 µM) of the same compound?
A: 98.3%

Q: What about the viability, T/C [17] of the same compound?
A: 92.2%

Q: And the viability, T/C (second compound 10 µM, first compound 0.0999 µM)?
A: 48.4%

Q: What about the viability, T/C [18] of the same compound?
A: 5.49%

Q: How did the IC50 [1] turn out when `Cc1cccc(N(C)C(=O)C2C(O)CCN2c2nc(C)cc(C(F)(F)F)c2C#N)c1` (stereo not drawn) + CN(C)c1ccc(Nc2c3ccc(NC(=O)CCN4CCCC4)cc3nc3cc(NC(=O)CCN4CCCC4)ccc23)cc1 was run?
A: > 10000 nM

Q: What about the IC50 [2] of the same compound?
A: > 10000 nM

Q: And the IC50 [3]?
A: > 10000 nM

Q: And the IC50 [4]?
A: > 10000 nM

Q: What about the IC50 [5] of the same compound?
A: > 10000 nM

Q: What about the IC50 [6] of the same compound?
A: > 10000 nM

Q: And the viability, T/C [7]?
A: 103%

Q: What about the viability, T/C [19] of the same compound?
A: 98.6%

Q: And the viability, T/C [8]?
A: 104%

Q: What about the viability, T/C [20] of the same compound?
A: 105%

Q: And the viability, T/C [21]?
A: 105%

Q: What about the viability, T/C [22] of the same compound?
A: 102%

Q: And the viability, T/C [9]?
A: 113%

Q: And the viability, T/C [23]?
A: 104%

Q: What about the viability, T/C [10] of the same compound?
A: 99.8%

Q: And the viability, T/C [24]?
A: 97%

Q: And the viability, T/C [25]?
A: 107%

Q: What about the viability, T/C [26] of the same compound?
A: 102%

Q: And the viability, T/C [11]?
A: 113%

Q: And the viability, T/C [27]?
A: 101%

Q: And the viability, T/C [12]?
A: 101%

Q: What about the viability, T/C [28] of the same compound?
A: 109%

Q: And the viability, T/C [29]?
A: 99.1%

Q: And the viability, T/C [30]?
A: 95.7%

Q: And the viability, T/C [13]?
A: 107%

Q: And the viability, T/C [31]?
A: 98.3%

Q: What about the viability, T/C [14] of the same compound?
A: 97.3%

Q: What about the viability, T/C [32] of the same compound?
A: 96.9%

Q: And the viability, T/C [33]?
A: 104%

Q: And the viability, T/C [34]?
A: 97.3%

Q: What about the viability, T/C [15] of the same compound?
A: 117%

Q: What about the viability, T/C [35] of the same compound?
A: 106%

Q: And the viability, T/C [16]?
A: 93.9%

Q: And the viability, T/C [36]?
A: 101%

Q: What about the viability, T/C [37] of the same compound?
A: 98%

Q: And the viability, T/C [38]?
A: 100%

Q: What about the viability, T/C [17] of the same compound?
A: 95.7%

Q: What about the viability, T/C [39] of the same compound?
A: 96.3%

Q: What about the viability, T/C [18] of the same compound?
A: 89.9%

Q: And the viability, T/C [40]?
A: 93.7%

Q: And the viability, T/C [41]?
A: 96.5%

Q: What about the viability, T/C [42] of the same compound?
A: 74.3%

Q: Which results are given for `O=c1[nH]cc(F)c(=O)[nH]1`?
A: viability, T/C (compound 0.0316 µM): 97% and 94.6% and 100%; viability, T/C (compound 0.1 µM): 103% and 94.6% and 105%; viability, T/C (compound 0.316 µM): 106% and 95.4% and 101%; viability, T/C (compound 1 µM): 96.8% and 100% and 101%; viability, T/C (compound 3.16 µM): 106% and 94.5% and 104%; viability, T/C (compound 10 µM): 104% and 106% and 103%; IC50 (curve of compound): > 10000 nM

Q: `CC1COCCN1c1cc(-c2ccnn2C)c2ccnc(-c3ccn[nH]3)c2n1` (stereo not drawn) + Cc1[nH]c2ccc(F)cc2c1-c1nc2c3cccnc3c3ncccc3c2[nH]1 was tested. Which IC50 [1] did it give?
A: 628 nM

Q: What about the IC50 [2] of the same compound?
A: 613 nM

Q: What about the IC50 [3] of the same compound?
A: 454 nM

Q: And the IC50 [4]?
A: 384 nM

Q: And the IC50 [5]?
A: 35.1 nM

Q: What about the IC50 [6] of the same compound?
A: 52.7 nM

Q: What about the viability, T/C [7] of the same compound?
A: 111%

Q: And the viability, T/C [19]?
A: 108%

Q: What about the viability, T/C [8] of the same compound?
A: 75.3%

Q: And the viability, T/C [20]?
A: 33.3%

Q: And the viability, T/C [21]?
A: 13.1%

Q: What about the viability, T/C [22] of the same compound?
A: 12.3%

Q: And the viability, T/C [9]?
A: 116%

Q: What about the viability, T/C [23] of the same compound?
A: 113%

Q: And the viability, T/C [10]?
A: 66.4%

Q: What about the viability, T/C [24] of the same compound?
A: 39%

Q: What about the viability, T/C [25] of the same compound?
A: 12.2%

Q: And the viability, T/C [26]?
A: 10.8%

Q: What about the viability, T/C [11] of the same compound?
A: 114%

Q: And the viability, T/C [27]?
A: 128%

Q: What about the viability, T/C [12] of the same compound?
A: 62.6%

Q: What about the viability, T/C [28] of the same compound?
A: 34%

Q: And the viability, T/C [29]?
A: 13.5%

Q: What about the viability, T/C [30] of the same compound?
A: 12.7%

Q: What about the viability, T/C [13] of the same compound?
A: 97.7%

Q: And the viability, T/C [31]?
A: 87.3%

Q: What about the viability, T/C [14] of the same compound?
A: 52.1%

Q: What about the viability, T/C [32] of the same compound?
A: 30%

Q: What about the viability, T/C [33] of the same compound?
A: 15.6%

Q: What about the viability, T/C [34] of the same compound?
A: 14%

Q: And the viability, T/C [15]?
A: 52.7%

Q: And the viability, T/C [35]?
A: 29.4%

Q: What about the viability, T/C [16] of the same compound?
A: 23%

Q: And the viability, T/C [36]?
A: 18.2%

Q: And the viability, T/C [37]?
A: 11.8%

Q: And the viability, T/C [38]?
A: 9.5%

Q: And the viability, T/C [17]?
A: 63.3%

Q: What about the viability, T/C [39] of the same compound?
A: 30.2%

Q: What about the viability, T/C [18] of the same compound?
A: 27.9%

Q: What about the viability, T/C [40] of the same compound?
A: 21.4%

Q: What about the viability, T/C [41] of the same compound?
A: 18%

Q: And the viability, T/C [42]?
A: 11.7%
